# Laboratory results: patent US5196352A, “New FK-506 cytosolic binding protein” (Merck & Co., Inc., priority 1991, dated 1993)
# Experiments:
# [1] = biological target: HCB protein PPIase activity (Homo sapiens, UniProt P62942); assay: PPIase assay of HCB protein (N-succinyl-Ala-Ala-Pro-Phe-p-nitroanilide, chymotrypsin coupled)
# Protocol: (§1) Briefly, the PPIase assay measures the "cis" to "trans" isomerization of the proline-alanine peptide bond in the peptide, N-succinyl-Ala-Ala-Pro-Phe-p-nitroanilide. When in the "trans" form, the peptide is readily cleaved by chymotrypsin and the appearance of p-nitroanilide can be quantitated spectrophotometrically at 405 nm.
# (§2) After 1.0 minutes, 30 ul of 2.0 mg/ml chymotrypsin (Sigma) in 100 mM Tris-HCl, pH 7.8 was added. After brief mixing, the absorbance was monitored at 405 nm in either a Perkin-Elmer 4B or Beckman DU 68 spectrophotometer. Absorbance measurements were taken at 3 or 5 second intervals for 4 minutes. A plot of Abs405 [steady state]--Abs405[time=t] versus time was made on semi-log paper. From the straight line, the time constant for Abs405 [steady state]--Abs405 [time=t] to fall by l/e was calculated. The reciprocal of this constant yields the rate constant k.
# [2] = tested on: low molecular weight cytosolic component; assay: Direct binding of [3H]FK-506 to JURKAT cytosol, complex by HPLC gel filtration, competition with unlabeled compound; design: species or system human; conditions: 200 fold molar excess of unlabeled compound; 16 nM [3H]FK-506, 200 μg cytosol protein
# Protocol: A cell-free extract was prepared from JURKAT cells by lysing […] cells in 0.5 ml of 10 mM Tris-HCl, pH 7.5 containing 1 mM MgCl as described in the legend for FIG. 3.
# [3] = tested on: cyclophilin PPIase activity; conditions: concentration of 1 uM
# Protocol: as §1, §2
# [4] = biological target: purified calf thymus cyclophilin (Bos taurus, UniProt P62935); assay: LH-20 binding assay with purified cyclophilin; conditions: for Bound (cpm), specifically bound: cyclophilin, 100 ng, 6.0 nM labeled compound
# Chain of purified calf thymus cyclophilin (P62935 whole entry): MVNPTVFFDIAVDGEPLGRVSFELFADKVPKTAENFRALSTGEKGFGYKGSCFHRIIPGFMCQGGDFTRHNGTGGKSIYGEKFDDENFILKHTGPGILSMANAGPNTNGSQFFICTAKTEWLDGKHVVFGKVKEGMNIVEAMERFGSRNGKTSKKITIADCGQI
# JURKAT cytosol [5] = assay: LH-20 binding assay with JURKAT cytosol; design: species or system human; conditions: for Bound (cpm), specifically bound: 0.5 nM labeled compound; for effect of heating on binding to JURKAT cytosol (in words): heated cytosol
# [6] = tested on: IL-2 secretion in JURKAT cells; assay: Inhibition of IL-2 secretion in JURKAT cells stimulated with PMA and ionomycin (ELISA); assay type: cell-based, human
# Protocol: Inhibition of IL-2 secretion in JURKAT cells stimulated with PMA and ionomycin by FK-506 and [^3 H]dihydro FK-506. JURKAT cells (equivalent to those available from the ATCC, supra) were cultured in RPMI 1640 media (Cellgro, Mediatech, Wash. D.C.) containing 1% Pen/Strep (Gibco), 1 mM Glutamine and 10% heat-inactivated fetal calf serum (Hazleton). For assay of IL-2 secretion by JURKAT cells, cells were cultured for 16 hr. in 96-well microtiter plates (Costar) at […] cells/ml in the above media containing 10 ng/ml of PMA (Sigma) and 5 μM ionomycin (Calbiochem) along with the concentrations of FK-506 or [^3 H]FK-506 indicated.
# JURKAT cytosol [7] = biological target: T1, JURKAT cytosol (Homo sapiens, UniProt P62942); assay: LH-20 binding assay with JURKAT cytosol
# T1 construct: endogenous in cells; host or cells: JURKAT (human T-cell line), crude cytosol
# T1 sequence (P62942 2-108): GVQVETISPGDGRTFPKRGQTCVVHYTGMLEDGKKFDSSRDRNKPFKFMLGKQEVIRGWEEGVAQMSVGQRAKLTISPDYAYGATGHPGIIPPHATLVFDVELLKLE
# [8] = JURKAT cytosol 40 μg heated 56 C., 15 min.
# Chain of HCB protein PPIase activity (P62942 whole entry): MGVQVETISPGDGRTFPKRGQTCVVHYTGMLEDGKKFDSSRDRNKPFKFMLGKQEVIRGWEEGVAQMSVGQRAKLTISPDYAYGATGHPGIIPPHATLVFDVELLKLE
SMILES,inhibition of HCB protein PPIase activity (in words) [1],inhibition of the formation of the [^3 H]FK-506 complex [2],inhibition of cyclophilin PPIase activity (in words) [3],"Bound (cpm), specifically bound [4]","Bound (cpm), specifically bound (JURKAT cytosol [5]; [8])","Bound (cpm), specifically bound (JURKAT cytosol [5]; JURKAT cytosol, 40 μg)",effect of heating on binding to JURKAT cytosol (in words) (JURKAT cytosol [5]),"IC50 ([6]; Homo sapiens, Jurkat, 16 h, read-out: concentration of inhibiting IL-2 secretion in JURKAT)",inhibition of IL-2 secretion in JURKAT cells (in words) ([6]; PMA and ionomycin),"potency as inhibitor of IL-2 secretion, times less potent than the parent compound ([6]; relative to FK-506, JURKAT cells, PMA and ionomycin)",specific binding to purified calf thymus cyclophilin (in words) ([4]; LH-20 assay),Kd (JURKAT cytosol [7])
CCC[C@@H]1/C=C(\C)C[C@H](C)C[C@H](OC)[C@H]2O[C@@](O)(C(=O)C(=O)N3CCCC[C@H]3C(=O)O[C@H](/C(C)=C/[C@@H]3CC[C@@H](O)[C@H](OC)C3)[C@H](C)[C@@H](O)CC1=O)[C@H](C)C[C@@H]2OC [Dihydro-FK-506],specifically inhibits,,,,,,,,,,,
C=CC[C@@H]1/C=C(\C)C[C@H](C)C[C@H](OC)[C@H]2O[C@@](O)(C(=O)C(=O)N3CCCC[C@H]3C(=O)O[C@H](/C(C)=C/[C@@H]3CC[C@@H](O)[C@H](OC)C3)[C@H](C)[C@@H](O)CC1=O)[C@H](C)C[C@@H]2OC [FK-506],specifically inhibited,90%,no effect,,,,,,,,,
"[3H]C(C)C([3H])C[C@@H](C)[C@@H](O)[C@H]1C(=O)N[C@@H](CC)C(=O)N(C)CC(=O)N(C)[C@@H](CC(C)C)C(=O)N[C@@H](C(C)C)C(=O)N(C)[C@@H](CC(C)C)C(=O)N[C@@H](C)C(=O)N[C@H](C)C(=O)N(C)[C@@H](CC(C)C)C(=O)N(C)[C@@H](CC(C)C)C(=O)N(C)[C@@H](C(C)C)C(=O)N1C (some centres unmarked) [[^3 H]CsA, [^3 H]-dihydro CsA]",,,,"20,988 cpm",0 cpm,"5,988 cpm",completely aborgated,,,,,
"[3H]CC([3H])C[C@@H]1/C=C(\C)C[C@H](C)C[C@H](OC)[C@H]2O[C@@](O)(C(=O)C(=O)N3CCCC[C@H]3C(=O)O[C@H](/C(C)=C/[C@@H]3CC[C@@H](O)[C@H](OC)C3)[C@H](C)[C@@H](O)CC1=O)[C@H](C)C[C@@H]2OC (some centres unmarked) [[^3 H]FK-506, [^3 H]-dihydro FK-506]",,,,0 cpm,"15,315 cpm","13,585 cpm",heat stable,1.1 nM,potent inhibitor,5 times,could not detect specific binding,4 nM
